Source: ChEMBL document CHEMBL1201862, “PubChem BioAssay data set” (2004)
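All cell lines were grown in 96-well plates and treated with compound for 48 hours. Abbreviation: GI50, concentration required for 50% inhibition of growth.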 Active and inactive are the calls of the source. No stated cut-off is given here; in the data, active = GI50 up to about 1.1 µM and inactive = higher.

Tests used:
Assay in all cases: inhibition of tumour cell growth, NCI panel, 48 h
SK-MEL-28 = test system: SK-MEL-28
CCRF-CEM = test system: CCRF-CEM
U-251 = test system: U-251
NCI-H522 = test system: NCI-H522
SNB-78 = test system: SNB-78
HL-60 = test system: HL-60
OVCAR-3 = test system: OVCAR-3
HT-29 = test system: HT-29
OVCAR-8 = test system: OVCAR-8
SF-539 = test system: SF-539
DMS-273 = test system: DMS-273
K562 = test system: K562
RPMI-8226 = test system: RPMI-8226
UACC-62 = test system: UACC-62
MOLT-4 = test system: MOLT-4
A498 = test system: A498
EKVX = test system: EKVX
XF498 = test system: XF498
SR = test system: SR
SK-MEL-2 = test system: SK-MEL-2

For `COc1ccc(/C=N/N=C(N)N)c(C(=O)O)c1OC`, the GI50 (SK-MEL-28) was > 100 µM (inactive), the GI50 (CCRF-CEM) was > 100 µM (inactive) and the GI50 (U-251) was > 100 µM (inactive). The GI50 (NCI-H522) was > 100 µM (inactive), the GI50 (SNB-78) was > 100 µM (inactive) and the GI50 (HL-60) was > 100 µM (inactive). The GI50 (OVCAR-3) was > 100 µM (inactive), the GI50 (HT-29) was > 100 µM (inactive) and the GI50 (OVCAR-8) was > 100 µM (inactive). For the same molecule, the GI50 (SF-539) was > 100 µM (inactive), the GI50 (DMS-273) was > 100 µM (inactive) and the GI50 (K562) was > 100 µM (inactive). The GI50 (RPMI-8226) was > 100 µM (inactive), the GI50 (UACC-62) was > 100 µM (inactive) and the GI50 (MOLT-4) was > 100 µM (inactive). For the same molecule, the GI50 (A498) was > 100 µM (inactive) and the GI50 (EKVX) was > 100 µM (inactive).

`N/C(=C\c1ccc(/C=C(\NC(=O)c2ccccc2)c2nc3c([nH]2)C(=O)c2ccccc2C3=O)cc1)c1nc2c([nH]1)C(=O)c1ccccc1C2=O` was tested, and the GI50 (SK-MEL-28) was 16.8 µM (inactive), the GI50 (CCRF-CEM) was 12.3 µM (inactive) and the GI50 (U-251) was 14.3 µM (inactive). The GI50 (NCI-H522) was 11.9 µM (inactive), the GI50 (SNB-78) was 20.6 µM (inactive) and the GI50 (HL-60) was 10 µM (inactive). For the same molecule, the GI50 (OVCAR-3) was 13.6 µM (inactive), the GI50 (HT-29) was 14.7 µM (inactive) and the GI50 (OVCAR-8) was 15.8 µM (inactive). The GI50 (SF-539) was 16.6 µM (inactive), the GI50 (DMS-273) was 18.5 µM (inactive) and the GI50 (K562) was 14.9 µM (inactive). For the same molecule, the GI50 (RPMI-8226) was 4.33 µM (inactive), the GI50 (UACC-62) was 11.5 µM (inactive) and the GI50 (MOLT-4) was 6.7 µM (inactive). For the same molecule, the GI50 (A498) was 13.6 µM (inactive), the GI50 (EKVX) was 23.3 µM (inactive) and the GI50 (XF498) was 11.6 µM (inactive).

In the case of `COc1ccc(OC)c(NC(=O)C(=O)C(C(=O)c2ccccc2F)C2OC(=O)c3ccccc32)c1` (centres undefined), the GI50 (SK-MEL-28) is reported as 39.7 µM (inactive), the GI50 (CCRF-CEM) is reported as 21.8 µM (inactive) and the GI50 (U-251) is reported as 19.1 µM (inactive). The GI50 (NCI-H522) was 23.5 µM (inactive), the GI50 (SR) was 23.5 µM (inactive) and the GI50 (SNB-78) was 36.8 µM (inactive). The GI50 (HL-60) was 34.8 µM (inactive), the GI50 (HT-29) was 45.5 µM (inactive) and the GI50 (OVCAR-8) was 35.1 µM (inactive). For the same molecule, the GI50 (SF-539) was 26.9 µM (inactive), the GI50 (DMS-273) was 30.6 µM (inactive) and the GI50 (K562) was 42.8 µM (inactive). For the same molecule, the GI50 (RPMI-8226) was 32.4 µM (inactive), the GI50 (SK-MEL-2) was 43.1 µM (inactive) and the GI50 (UACC-62) was 36.4 µM (inactive). For the same molecule, the GI50 (MOLT-4) was 26.3 µM (inactive), the GI50 (A498) was > 100 µM (inactive) and the GI50 (EKVX) was 62.2 µM (inactive). For the same molecule, the GI50 (XF498) was 34.8 µM (inactive).

In the case of `Nc1nc(SCCNC(=O)CCc2ccc(O)c(I)c2)nc2c1ncn2C1OC(CO)C(O)C1O` (centres undefined), the GI50 (SK-MEL-28) is reported as > 100 µM (inactive), the GI50 (CCRF-CEM) is reported as > 100 µM (inactive) and the GI50 (U-251) is reported as > 100 µM (inactive). For the same molecule, the GI50 (NCI-H522) was > 100 µM (inactive), the GI50 (SR) was > 100 µM (inactive) and the GI50 (SNB-78) was > 100 µM (inactive). The GI50 (HL-60) was > 100 µM (inactive), the GI50 (OVCAR-3) was > 100 µM (inactive) and the GI50 (HT-29) was > 100 µM (inactive). The GI50 (OVCAR-8) was > 100 µM (inactive), the GI50 (SF-539) was > 100 µM (inactive) and the GI50 (DMS-273) was > 100 µM (inactive). The GI50 (K562) was > 100 µM (inactive), the GI50 (SK-MEL-2) was > 100 µM (inactive) and the GI50 (UACC-62) was > 100 µM (inactive). For the same molecule, the GI50 (MOLT-4) was > 100 µM (inactive), the GI50 (A498) was > 100 µM (inactive) and the GI50 (EKVX) was > 100 µM (inactive). For the same molecule, the GI50 (XF498) was > 100 µM (inactive).

In the case of `O=c1c(Cc2c(O)oc3cc(O)ccc3c2=O)c(O)oc2cc(O)ccc12`, the GI50 (SK-MEL-28) is reported as > 100 µM (inactive), the GI50 (CCRF-CEM) is reported as 56 µM (inactive) and the GI50 (U-251) is reported as > 100 µM (inactive). The GI50 (SR) was > 100 µM (inactive), the GI50 (HL-60) was > 100 µM (inactive) and the GI50 (OVCAR-3) was > 100 µM (inactive). For the same molecule, the GI50 (HT-29) was > 100 µM (inactive), the GI50 (OVCAR-8) was > 100 µM (inactive) and the GI50 (SF-539) was > 100 µM (inactive). For the same molecule, the GI50 (K562) was 64.9 µM (inactive), the GI50 (SK-MEL-2) was > 100 µM (inactive) and the GI50 (UACC-62) was > 100 µM (inactive). For the same molecule, the GI50 (MOLT-4) was > 100 µM (inactive), the GI50 (A498) was > 100 µM (inactive) and the GI50 (EKVX) was > 100 µM (inactive).

For `CC(=O)NC1=C[C@@H]([C@H]2COC(C)(C)O2)OC1=O`, the GI50 (SK-MEL-28) was > 100 µM (inactive), the GI50 (CCRF-CEM) was > 100 µM (inactive) and the GI50 (U-251) was > 100 µM (inactive). For the same molecule, the GI50 (NCI-H522) was > 100 µM (inactive), the GI50 (SNB-78) was > 100 µM (inactive) and the GI50 (HL-60) was > 100 µM (inactive). The GI50 (OVCAR-3) was > 100 µM (inactive), the GI50 (HT-29) was > 100 µM (inactive) and the GI50 (OVCAR-8) was > 100 µM (inactive). The GI50 (SF-539) was > 100 µM (inactive), the GI50 (DMS-273) was > 100 µM (inactive) and the GI50 (K562) was > 100 µM (inactive). For the same molecule, the GI50 (RPMI-8226) was > 100 µM (inactive), the GI50 (SK-MEL-2) was > 100 µM (inactive) and the GI50 (UACC-62) was > 100 µM (inactive). For the same molecule, the GI50 (MOLT-4) was > 100 µM (inactive), the GI50 (A498) was > 100 µM (inactive) and the GI50 (EKVX) was > 100 µM (inactive). For the same molecule, the GI50 (XF498) was > 82.8 µM (inactive).

With `CCOC(=O)c1csc(NC(=O)CCN(CC)CC)n1` the GI50 (SK-MEL-28) was 27.5 µM (inactive), the GI50 (CCRF-CEM) was 27.5 µM (inactive) and the GI50 (U-251) was 81.3 µM (inactive). For the same molecule, the GI50 (SR) was 21.9 µM (inactive), the GI50 (HL-60) was 39.1 µM (inactive) and the GI50 (OVCAR-3) was 26.8 µM (inactive). The GI50 (HT-29) was 23.8 µM (inactive), the GI50 (OVCAR-8) was 30.7 µM (inactive) and the GI50 (SF-539) was 26.9 µM (inactive). The GI50 (K562) was 71 µM (inactive), the GI50 (RPMI-8226) was 0.0817 µM (active) and the GI50 (SK-MEL-2) was 55.7 µM (inactive). For the same molecule, the GI50 (UACC-62) was 45 µM (inactive), the GI50 (MOLT-4) was 32.7 µM (inactive) and the GI50 (A498) was 91.2 µM (inactive). The GI50 (EKVX) was 63.2 µM (inactive).

In the case of `CCOC(=O)/C=C(\C)c1ccc(OC)cc1`, the GI50 (SK-MEL-28) is reported as > 100 µM (inactive), the GI50 (U-251) is reported as > 100 µM (inactive) and the GI50 (SR) is reported as > 100 µM (inactive). The GI50 (SNB-78) was > 100 µM (inactive), the GI50 (HL-60) was > 100 µM (inactive) and the GI50 (HT-29) was 88.9 µM (inactive). The GI50 (OVCAR-8) was > 100 µM (inactive), the GI50 (SF-539) was > 100 µM (inactive) and the GI50 (DMS-273) was > 100 µM (inactive). For the same molecule, the GI50 (RPMI-8226) was > 100 µM (inactive), the GI50 (SK-MEL-2) was > 100 µM (inactive) and the GI50 (A498) was 89.3 µM (inactive). For the same molecule, the GI50 (EKVX) was > 100 µM (inactive) and the GI50 (XF498) was > 100 µM (inactive).

For `N=C(N)Nc1ncccc1[N+](=O)[O-]`, the GI50 (SK-MEL-28) was > 100 µM (inactive), the GI50 (CCRF-CEM) was > 100 µM (inactive) and the GI50 (U-251) was > 31.6 µM (inactive). For the same molecule, the GI50 (NCI-H522) was > 100 µM (inactive), the GI50 (SNB-78) was > 100 µM (inactive) and the GI50 (HL-60) was 19.7 µM (inactive). For the same molecule, the GI50 (OVCAR-3) was 25.1 µM (inactive), the GI50 (HT-29) was 40.6 µM (inactive) and the GI50 (OVCAR-8) was > 88.3 µM (inactive). For the same molecule, the GI50 (SF-539) was 53.6 µM (inactive), the GI50 (DMS-273) was > 100 µM (inactive) and the GI50 (K562) was > 100 µM (inactive). For the same molecule, the GI50 (RPMI-8226) was > 95.1 µM (inactive), the GI50 (SK-MEL-2) was > 100 µM (inactive) and the GI50 (UACC-62) was > 100 µM (inactive). For the same molecule, the GI50 (MOLT-4) was > 100 µM (inactive), the GI50 (A498) was > 100 µM (inactive) and the GI50 (XF498) was > 100 µM (inactive).

With `CCOC(=O)/C(C#N)=C1/SC(C(=O)N/N=C/c2ccc(OC)cc2)=C(N)N1c1ccccc1` the GI50 (SK-MEL-28) was 35.6 µM (inactive), the GI50 (CCRF-CEM) was > 100 µM (inactive) and the GI50 (U-251) was > 100 µM (inactive). For the same molecule, the GI50 (NCI-H522) was > 100 µM (inactive), the GI50 (SR) was > 100 µM (inactive) and the GI50 (HL-60) was > 100 µM (inactive). The GI50 (OVCAR-3) was > 100 µM (inactive), the GI50 (HT-29) was 31.3 µM (inactive) and the GI50 (OVCAR-8) was > 100 µM (inactive). For the same molecule, the GI50 (SF-539) was 1.16 µM (inactive), the GI50 (K562) was 0.205 µM (active) and the GI50 (RPMI-8226) was 1.71 µM (inactive). The GI50 (UACC-62) was > 100 µM (inactive) and the GI50 (MOLT-4) was > 100 µM (inactive).
